The experiment addresses c-Myc template DNA (c-myc quadruplex). As to the kind of experiment: Quadruplex binding / stop assay (Taq polymerase arrest, capillary electrophoresis). As to conditions: for pIC50: read-out: S DATA, Table 1D, stop assay data; for IC50: read-out: Stop Data c-Myc μM, concentration at which 50% of the DNA was arrested (arrested:full-length 1:1).

For 59 compounds, IC50 results are on record in patent US7507727B2, “Substituted quinobenzoxazine analogs and methods of using thereof” (Cylene Pharmaceuticals, Inc., priority 2003, dated 2009).

Structures are written as SMILES. pIC50: −log10 of the molar value. Like-named read-outs stand apart in the source and are kept apart here.

Description: A high throughput polymerase arrest assay has been developed. The assay comprises contacting a template nucleic acid, often DNA, with a primer, which also is often DNA; contacting the primer/template complex with a compound described herein (also referred to as a “test compound”); contacting the primer/template complex with a polymerase; and separating reaction products. The assay often includes the step of denaturing the primer/template complex mixture and then renaturing the complex, which often is carried out before a test molecule is added to the system. Multiple assays often are carried out using varying concentrations of a test compound, such that an IC50 value can be obtained, for example. The reaction products often include extended primers of different lengths.
Thus, the reaction mixture often includes at least two reaction products when a test compound interacts with a quadruplex structure in the template, one having a completely extended primer and one having an incompletely extended primer, and these two reaction products are separated. The products may be separated using any convenient separation method, such as mass spectrometry and in one embodiment, capillary electrophoresis.
In an embodiment, a primer oligonucleotide covalently linked to a fluorescent label is contacted with template DNA. The resulting complex is contacted with a test molecule and then contacted with a polymerase capable of extending the primer. The reaction products then are separated and detected by capillary electrophoresis. A longer primer sequence was used for practicing this embodiment as compared to embodiments where the primer includes no covalently-linked fluorophore or where capillary electrophoresis is not utilized for separation. Deoxynucleotides are added at any stage of the assay before the separation, often when the primer is contacted with the template DNA. The template DNA/primer complex often is denatured (e.g., by increasing the temperature of the system) and then renatured (e.g., by cooling the system) before a test compound is added).
The mixture was denatured at 95° C. for 5 minutes and, after cooling down to room temperature, was incubated at 37° C. for 15 minutes.
After cooling down to room temperature, 1 mM KCl and the test compound (various concentrations) were added and the mixture incubated for 15 minutes at room temperature. The primer extension was performed by adding 10 mM KCl and Taq DNA Polymerase (2.5 U/reaction, Promega) and incubating at 70° C. for 30 minutes. The reaction was stopped by adding 1 μl of the reaction mixture to 10 μl Hi-Di Formamide mixed and 0.25 μl LIZ120 size standard. Hi-Di Formamide and LIZ120 size standard were purchased from Applied Biosystems.
The partially extended quadruplex arrest product was between 61 or 62 bases long and the full-length extended product was 99 bases long. The products were separated and analyzed using capillary electrophoresis. Capillary electrophoresis was performed using an ABI PRISM 3100-Avant Genetic Analyzer.
Stop Assays. […] A fluorescently labeled primer DNA is then annealed to the 3′ end of the template DNA. A DNA polymerase such as Taq polymerase is then introduced to synthesize a complementary strand of DNA by extending from the fluorescently labeled primer. When the progress of the Taq polymerase is unhindered, it synthesizes a full-length copy of the template.
These products are visualized by capillary electrophoresis.

As for `NC1CCN(c2c(F)cc3c(=O)c(C(=O)NCCc4cccs4)cn4c3c2Oc2cc3ccccc3cc2-4)C1` (centres unmarked) [compound 1701], the pIC50 is less than 4.82.

For the compound `CC(C)(C)OC(=O)NC1CCN(c2c(F)c(N)c3c(=O)c(C(=O)O)cn4c3c2Oc2cc3ccccc3cc2-4)C1` (centres unmarked) [compound 15], the IC50 stood at 1.75 µM.

In the case of `O=C(NCCN1CCCC1)c1cn2c3c(c(N4CCC(c5cnccn5)C4)c(F)cc3c1=O)Oc1cc3ccccc3cc1-2` (centres unmarked) [compound 462], the IC50 was 0.75 µM.

As to `CN1CCCC1CCNC(=O)c1cn2c3c(c(NCCN4CCCC4)ccc3c1=O)Oc1cc3ccccc3cc1-2` (centres unmarked) [compound 266], the IC50 was found to be 1.75 µM.

With `CN1CCCC1CCNCC(=O)N[C@@H]1CCN(c2c(F)cc3c(=O)c(C(=O)N4CCCCC4)cn4c3c2Oc2cc3c(cc2-4)oc2ccccc23)C1` (some centres unmarked) [compound 413], the IC50 was found to be 0.75 µM.

Turning to `NC1CCN(c2c(F)cc3c(=O)c(C(=O)NCCN4CCOCC4)cn4c3c2Oc2ccccc2-4)C1` (centres unmarked) [compound 1620], the pIC50 is less than 4.82.

For `CC(C)OCCCNC(=O)c1cn2c3c(c(N4CCC(N)C4)c(F)cc3c1=O)Oc1cc3ccccc3cc1-2` (centres unmarked) [compound 1710], the pIC50 was less than 4.82.

Regarding `CCN(CC)CCCC(C)NC(=O)c1cn2c3c(c(N4CCC(c5cnccn5)C4)ccc3c1=O)Oc1cc3ccccc3cc1-2` (centres unmarked) [compound 1720], the pIC50 was 6.00.

In the case of `CN(C)CC(C)(C)CNC(=O)c1cn2c3c(c(NCCCN4CCOCC4)c(F)cc3c1=O)Oc1cc3ccccc3cc1-2` [compound 1652], the pIC50 was 6.00.

In the case of `CN1CCCC1CCNC(=O)c1cn2c3c(c(N4CC[C@@H](NC(=O)CCNCCCN5CCOCC5)C4)c(F)cc3c1=O)Oc1cc3c(cc1-2)oc1ccccc13` (some centres unmarked) [compound 416], the IC50 worked out at 0.75 µM.

With `CN1CCCC1CCNC(=O)c1cn2c3c(c(N4CCC(c5ccccc5F)C4)c(F)cc3c1=O)Oc1cc3ccccc3cc1-2` (centres unmarked) [compound 1771], the pIC50 is 5.00.

Take `CN1CCCC1CCNC(=O)c1cn2c3c(c(N4CCC(NC(=O)OC(C)(C)C)C4)ccc3c1=O)Oc1cc3ccccc3cc1-2` (centres unmarked) [compound 451]: the IC50 came to 0.75 µM.

For `CC1CCCN(CCCNc2c(F)cc3c(=O)c(C(=O)NCCC4CCCN4C)cn4c3c2Oc2cc3ccccc3cc2-4)C1` (centres unmarked) [compound 1685], the pIC50 was 5.76.

`CN1CCCC1CCNC(=O)c1cn2c3c(c(NCCC4CCCN4C)ccc3c1=O)Oc1cc3ccccc3cc1-2` (centres unmarked) [compound 449]: the IC50 stood at 0.75 µM.

Turning to `CN1CCCC1CCNC(=O)c1cn2c3c(c(NCCC4CCCN4C)ccc3c1=O)Oc1cc3ccccc3cc1-2` (centres unmarked) [compound 1523], the pIC50 was 6.12.

Consider `O=C(NCCN1CCCC1)c1cn2c3c(c(SCCc4cnccn4)c(F)cc3c1=O)Oc1cccnc1-2` [compound 1786], for which the pIC50 was less than 4.82.

Take `CN1CCC[C@H]1CCNC(=O)c1cn2c3c(c(N4CCC(c5cnccn5)C4)c(F)cc3c1=O)Oc1cc3ccccc3cc1-2` (some centres unmarked) [compound 355]: the IC50 turned out to be 0.89 µM.

For `NCCCNC(=O)c1cn2c3c(c(N4CCC(N)C4)c(F)cc3c1=O)Oc1cc3ccccc3cc1-2` (centres unmarked) [compound 466], the IC50 amounted to 0.75 µM.

For `CN1CCN(CCCNC(=O)c2cn3c4c(c(NCCCN5CCOCC5)c(F)cc4c2=O)Oc2c-3ccc3ccccc23)CC1` [compound 127], the IC50 was 1.75 µM.

In the case of `CN(C)CCCCNc1c(F)cc2c(=O)c(C(=O)NCCN3CCOCC3)cn3c2c1Oc1cc2c(cc1-3)oc1ccccc12` [compound 163], the IC50 was determined as 1.75 µM.

Consider `COc1ccc2[nH]cc(CCNc3c(F)cc4c(=O)c(C(=O)NCCC5CCCN5C)cn5c4c3Oc3cc4ccccc4cc3-5)c2c1` (centres unmarked) [compound 1671], for which the pIC50 was 5.76.

As for `O=C(NCCN1CCCC1)c1cn2c3c(c(NCC4CCCO4)c(F)cc3c1=O)Oc1cc3ccccc3cc1-2` (centres unmarked) [compound 1734], the pIC50 is 5.52.

As for `CN1CCCC1CCNc1c(F)cc2c(=O)c(C(=O)NCCN3CCCC3)cn3c2c1Oc1cc2ccccc2cc1-3` (centres unmarked) [compound 488], the IC50 was determined as 0.5 µM.

For `CN(C)CCCCNc1c(F)cc2c(=O)c(C(=O)NCCCN3CCOCC3)cn3c2c1Oc1c-3ccc2ccccc12` [compound 400], the IC50 turned out to be 0.75 µM.

With `CN(C)CCCCNC(=O)c1cn2c3cc4c(cc3oc3c(NCCN5CCOCC5)c(F)cc(c1=O)c32)c(=O)c1ccccc14` [compound 490], the IC50 is 0.5 µM.

As for `CN(C)CCCCNC(=O)c1cn2c3c(c(N4CCC(NC(=O)OC(C)(C)C)C4)c(F)cc3c1=O)Oc1cc3c(cc1-2)oc1ccccc13` (centres unmarked) [compound 155], the IC50 came out at 1.75 µM.

For `CN1CCN(CCCNc2c(F)cc3c(=O)c(C(=O)NCCCN4CCOCC4)cn4c5cc6c(=O)c7ccccc7c(=O)c6cc5oc2c34)CC1` [compound 492], the IC50 came to 0.45 µM.

In the case of `CN1CCCC1CCNC(=O)c1cn2c3c(c(N4CCC(C#N)(c5ccccc5)CC4)c(F)cc3c1=O)Oc1cc3ccccc3cc1-2` (centres unmarked) [compound 1491], the pIC50 was 5.76.

Turning to `CC(O)CNc1c(F)cc2c(=O)c(C(=O)NCCC3CCCN3C)cn3c2c1Oc1cc2ccccc2cc1-3` (centres unmarked) [compound 1656], the pIC50 was 5.76.

With `CC(C)(C)OC(=O)N[C@@H]1CCN(C(=O)c2cn3c4c(c(N5CC[C@@H](NC(=O)OC(C)(C)C)C5)c(F)cc4c2=O)Oc2cc4ccccc4cc2-3)C1` [compound 65], the IC50 was found to be 2.5 µM.

For `O=C(NCCN1CCOCC1)c1cn2c3c(c(NCCN4CCCC4)ccc3c1=O)Oc1cc3ccccc3cc1-2` [compound 268], the IC50 amounted to 1.75 µM.

On to `CN1CCCC1CCNC(=O)c1cn2c3c(c(NCCCO)c(F)cc3c1=O)Oc1cc3ccccc3cc1-2` (centres unmarked) [compound 1678], for which the pIC50 is 5.76.

On to `CC1CCCC(C)N1CCCNc1c(F)cc2c(=O)c(C(=O)NCCC3CCCN3C)cn3c2c1Oc1cc2ccccc2cc1-3` (centres unmarked) [compound 296], for which the IC50 was 1.75 µM.

As to `N[C@@H]1CCN(c2c(F)cc3c(=O)c(C(=O)NCCCn4ccnc4)cn4c3c2Oc2c-4ccc3ccccc23)C1` [compound 157], the IC50 turned out to be 1.75 µM.

Take `CN1CCCC1CCNC(=O)c1cn2c3c(c(N4CCC(NC(=O)OC(C)(C)C)CC4)c(F)cc3c1=O)Oc1cc3ccccc3cc1-2` (centres unmarked) [compound 1498]: the pIC50 was 5.76.

As to `CC(C)N1CCN(c2c(F)cc3c(=O)c(C(=O)NCCN4CCCC4)cn4c3c2Oc2ccc(Cl)cc2-4)CC1` [compound 1798], the pIC50 was 5.18.

Take `CN(C)CCCCNc1c(F)cc2c(=O)c(C(=O)N3CC[C@H](NC(=O)OC(C)(C)C)C3)cn3c4cc5c(cc4oc1c23)c(=O)c1ccccc15` [compound 207]: the IC50 worked out at 1.75 µM.

Turning to `CN1CCCC1CCNC(=O)c1cn2c3c(c(NC(=O)C4CNCCN4)c(F)cc3c1=O)Oc1cc3ccccc3cc1-2` (centres unmarked) [compound 1505], the pIC50 is less than 4.82.

Take `CN1CCC[C@H]1CCNC(=O)c1cn2c3c(c(N4CCC(c5cnccn5)C4)c(F)cc3c1=O)Oc1ccccc1-2` (some centres unmarked) [compound 1762]: the pIC50 is 5.24.

Consider `CN(C)CCCCNC(=O)c1cn2c3c(c(N4CCC(NC(=O)OC(C)(C)C)C4)c(F)cc3c1=O)Oc1ccccc1-2` (centres unmarked) [compound 1588], for which the pIC50 was less than 4.82.

With `CN(C)c1ccc(NC(=O)c2cn3c4c(c(NCCC5CCCN5C)c(F)cc4c2=O)Oc2c-3ccc3ccccc23)cc1` (centres unmarked) [compound 136], the IC50 came out at 1.75 µM.

`O=C(O)c1cn2c3c(c(NCC4CCCO4)c(F)cc3c1=O)Oc1cc3ccccc3cc1-2` (centres unmarked) [compound 1]: the IC50 is 4 µM.

In the case of `N[C@@H]1CCN(c2c(F)cc3c(=O)c(C(=O)NCCCN4CCOCC4)cn4c3c2Oc2c-4ccc3ccccc23)C1` [compound 103], the IC50 turned out to be 1.8 µM.

In the case of `CN1CCCC1CCNC(=O)c1cn2c3c(c(N4CCC(NC(=O)OC(C)(C)C)C4)c(F)cc3c1=O)Oc1cc3ccccc3cc1-2` (centres unmarked) [compound 213], the IC50 is 1.75 µM.

With `CN1CCCC1CCNC(=O)c1cn2c3c(c(F)c(F)cc3c1=O)Oc1cc3ccccc3cc1-2` (centres unmarked) [compound 1739], the pIC50 was 5.48.

Consider `CN1CCCC1CCNC(=O)c1cn2c3c(c(NCCCCN4CCCC4)c(F)cc3c1=O)Oc1cc3ccccc3cc1-2` (centres unmarked) [compound 1504], for which the pIC50 is 6.12.

In the case of `O=C(NCCCN1CCOCC1)c1cn2c3cc4c(cc3oc3c(NCCN5CCOCC5)c(F)cc(c1=O)c32)c(=O)c1ccccc14` [compound 205], the IC50 is 1.75 µM.

Turning to `O=C(NCCN1CCCC1)c1cn2c3c(c(NCCN4CCCC4)c(F)cc3c1=O)Oc1c-2ccc2ccccc12` [compound 139], the IC50 came out at 1.75 µM.

In the case of `CN1CCN(CCCNc2c(F)cc3c(=O)c(C(=O)NCCN4CCCC4)cn4c3c2Oc2ccccc2-4)CC1` [compound 1577], the pIC50 was less than 4.82.

For `CN1CCCC1CCNC(=O)c1cn2c3c(c(NCC(O)CO)c(F)cc3c1=O)Oc1cc3ccccc3cc1-2` (centres unmarked) [compound 1677], the pIC50 was 5.76.

Regarding `CN1CCCC1CCNC(=O)c1cn2c3c(c(N4CCC(c5ccccn5)C4)c(F)cc3c1=O)Oc1cc3ccccc3cc1-2` (centres unmarked) [compound 1507], the pIC50 was 6.12.

Regarding `CN1CCN(C(=O)c2cn3c4cc5c(=O)c6ccccc6c(=O)c5cc4oc4c(N5CCC(N)C5)c(F)cc(c2=O)c43)CC1` (centres unmarked) [compound 92], the IC50 worked out at 2.5 µM.

As for `CN1CCCC1CCNC(=O)c1cn2c3c(c(N4CCC(N)C4)c(F)c(N)c3c1=O)Oc1cc3ccccc3cc1-2` (centres unmarked) [compound 234], the IC50 stood at 1.75 µM.

With `CN1CCCC1CCNC(=O)c1cn2c3c(c(NCCCCCCO)c(F)cc3c1=O)Oc1cc3ccccc3cc1-2` (centres unmarked) [compound 1675], the pIC50 was less than 4.82.

As to `CN1CCN(CCCNc2ccc3c(=O)c(C(=O)NCCC4CCCN4C)cn4c3c2Oc2cc3ccccc3cc2-4)CC1` (centres unmarked) [compound 1553], the pIC50 is 6.12.

In the case of `O=C(NCCN1CCOCC1)c1cn2c3c(c(SCCc4cnccn4)c(F)cc3c1=O)Oc1cc(Cl)ccc1-2` [compound 1788], the pIC50 was less than 4.82.

In the case of `CN1CCN(CCCNc2c(F)cc3c(=O)c(C(=O)N4CC[C@@H](NC(=O)OC(C)(C)C)C4)cn4c3c2Oc2cc3ccccc3cc2-4)CC1` [compound 61], the IC50 was 2.5 µM.

Consider `O=C(NCCN1CCCC1)c1cn2c3c(c(NCCN4CCOCC4)ccc3c1=O)Oc1cc3ccccc3cc1-2` [compound 1546], for which the pIC50 was less than 4.82.

In the case of `O=C(NCCCN1CCOCC1)c1cn2c3c(c(NCCN4CCCC4)ccc3c1=O)Oc1cc3ccccc3cc1-2` [compound 1518], the pIC50 was 5.76.
